Results taken from PMC10892423 (Pharmaceutics, 2024).

Key:
[1] = system: MBL-producing P. aeruginosa clinical isolates; test: MIC by broth microdilution (CLSI); type: cell-based, Pseudomonas aeruginosa
Description: The DMSO stock solutions of the test compounds were serially diluted to the desired concentrations in CAMHB. Then, 10 μL of the bacterial suspension (5 × 10^5 colony forming units (CFU)/mL) was combined with 200 μL of DMSO stock solutions of the test compounds in 96-well microtiter plates (1% DMSO, final). After the incubation of the plate at 37 °C for 24 h, bacterial growth was visibly evaluated by monitoring the turbidity of the resulting suspension, and the MICs were determined as the lowest concentrations of the test compounds that inhibited the visible growth of the bacteria.

[2] = target: T1, NDM-1 (Klebsiella pneumoniae, UniProt C7C422); test: β-lactamase inhibition, imipenem hydrolysis; type: biochemical; settings: imipenem substrate; read-out: β-Lactamases, IC50 NDM-1
T1 construct: purchased RayBiotech, Inc. 230-00554
T1 sequence (C7C422 29-270, looked up, species assumed): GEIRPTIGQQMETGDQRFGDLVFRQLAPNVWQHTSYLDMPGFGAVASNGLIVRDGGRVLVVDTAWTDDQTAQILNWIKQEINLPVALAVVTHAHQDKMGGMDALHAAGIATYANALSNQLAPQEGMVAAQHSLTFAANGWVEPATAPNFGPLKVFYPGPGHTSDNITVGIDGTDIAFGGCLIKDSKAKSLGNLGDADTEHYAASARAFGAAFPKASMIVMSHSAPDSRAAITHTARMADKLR
From the text: (§1) Recombinant AmpC from Escherichia coli was produced according to a previously reported protocol. KPC-2 and NDM-1 […] were purchased from LifeSpan Biosciences, Inc. (Lynnwood, WA, USA) (LS-G26598) and RayBiotech, Inc. (Peachtree Corners, GA, USA) (230-00554), respectively. Genes encoding OXA-48 (residues 23–265) and VIM-2 (residues 27–266) were custom-synthesized (Bioneer Inc., Seoul, Republic of Korea) and expressed as previously described. The β-lactamase inhibitory activity of the title compounds was then determined according to the previously reported methods. Briefly, equal volumes (100 μL) of the title compounds (70–0.1 μM in PBS) and diluted enzyme stock were mixed (final concentration 2% of DMSO in 200 μL) in 96-well plates, which were then incubated at 37 °C for 20 min. The incubated mixture was added to each well containing substrates (nitrocefin for AmpC, KPC-2, OXA-48, and VIM-2; and imipenem for NDM-1) of final concentrations of 70 μM for nitrocefin and 100 μM for imipenem. Substrate hydrolysis was monitored at 486 nm (nitrocefin) or 300 nm (imipenem) for 15 min, using a Cytation 5 imaging multimode reader (BioTek Instruments Inc., Winooski, VT, USA). At the plateau level of hydrolysis, the corresponding rates of hydrolysis were compared to those obtained without inhibitors (100%) to determine the percentage of enzyme inhibition at each concentration of the title compounds. The IC50 values of the compounds were derived from sigmoidal dose–response curves, using GraphPad Prism 5 (GraphPad Software, Boston, MA, USA).

[3] = target: T2, AmpC (Escherichia coli, UniProt P00811); test: β-lactamase inhibition, nitrocefin hydrolysis; type: biochemical
T2 construct: made in house
T2 sequence (P00811 20-377): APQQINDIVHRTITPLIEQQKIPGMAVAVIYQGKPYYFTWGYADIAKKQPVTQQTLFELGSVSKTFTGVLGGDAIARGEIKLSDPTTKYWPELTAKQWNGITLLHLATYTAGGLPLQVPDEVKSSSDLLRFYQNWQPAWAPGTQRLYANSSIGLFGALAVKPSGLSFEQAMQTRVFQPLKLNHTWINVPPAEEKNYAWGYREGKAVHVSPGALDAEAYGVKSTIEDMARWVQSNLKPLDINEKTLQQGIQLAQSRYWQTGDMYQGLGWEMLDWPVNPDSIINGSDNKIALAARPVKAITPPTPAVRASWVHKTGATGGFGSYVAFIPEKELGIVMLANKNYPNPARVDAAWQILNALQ
From the text: as §1

[4] = target: T3, KPC-2 (Klebsiella pneumoniae, UniProt Q9F663); test: β-lactamase inhibition, nitrocefin hydrolysis; type: biochemical; settings: nitrocefin substrate; read-out: β-Lactamases, IC50 KPC-2
T3 construct: purchased LifeSpan Biosciences, Inc. LS-G26598
T3 sequence (Q9F663 25-293, looked up): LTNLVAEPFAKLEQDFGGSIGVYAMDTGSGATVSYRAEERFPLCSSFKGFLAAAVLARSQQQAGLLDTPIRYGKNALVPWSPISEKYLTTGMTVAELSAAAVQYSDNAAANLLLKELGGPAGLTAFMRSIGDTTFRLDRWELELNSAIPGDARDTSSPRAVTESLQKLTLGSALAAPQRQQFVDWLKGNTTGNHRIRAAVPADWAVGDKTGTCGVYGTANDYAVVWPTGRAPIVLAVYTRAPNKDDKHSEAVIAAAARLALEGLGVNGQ
From the text: as §1

[5] = target: T4, OXA-48 (Klebsiella pneumoniae, UniProt Q6XEC0); test: β-lactamase inhibition, nitrocefin hydrolysis; type: biochemical; settings: nitrocefin substrate; read-out: β-Lactamases, IC50 OXA-48
T4 construct: Genes encoding OXA-48 (residues 23–265) and VIM-2 (residues 27–266) were custom-synthesized; made in house
T4 sequence (Q6XEC0 23-265 limits assumed): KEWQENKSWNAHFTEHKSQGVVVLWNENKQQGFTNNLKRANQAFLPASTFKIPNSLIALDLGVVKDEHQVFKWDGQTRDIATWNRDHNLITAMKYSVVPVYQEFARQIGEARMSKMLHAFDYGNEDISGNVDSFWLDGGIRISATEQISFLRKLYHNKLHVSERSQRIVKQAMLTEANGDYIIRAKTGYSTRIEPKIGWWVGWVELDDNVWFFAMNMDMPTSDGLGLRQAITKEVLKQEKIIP
From the text: as §1

[6] = target: T5, VIM-2 (Escherichia coli, UniProt Q5U7L7); test: β-lactamase inhibition, nitrocefin hydrolysis; type: biochemical; settings: nitrocefin substrate; read-out: β-Lactamases, IC50 VIM-2
T5 construct: Genes encoding OXA-48 (residues 23–265) and VIM-2 (residues 27–266) were custom-synthesized; made in house
From the text: as §1

**Q.** With colistin [CST] as the compound, how does the “MIC Value” ([1]; PA-001, blaNDM) read?
**A.** Its value is at most 1 µg/mL.

**Q.** And the “MIC Value” ([1]; PA-002, blaIMP)?
**A.** The value was at most 1 µg/mL.

**Q.** And the “MIC Value” ([1]; PA-007, blaNDM)?
**A.** The value was at most 1 µg/mL.

**Q.** And the “MIC Value” ([1]; PA-008, blaNDM)?
**A.** Its value is at most 1 µg/mL.

**Q.** What about the “MIC Value” ([1]; PA-011, blaNDM) of the same compound?
**A.** The value was at most 1 µg/mL.

**Q.** And the “MIC Value” ([1]; PA-012, blaNDM)?
**A.** The value was at most 1 µg/mL.

**Q.** And the “MIC Value” ([1]; PA-016, blaIMP)?
**A.** Its value is at most 1 µg/mL.

**Q.** And the “MIC Value” ([1]; PA-017, blaNDM)?
**A.** Its value is at most 1 µg/mL.

**Q.** And the “MIC Value” ([1]; PA-019, blaNDM)?
**A.** Its value is at most 1 µg/mL.

**Q.** What about the “MIC Value” ([1]; PA-020, blaNDM) of the same compound?
**A.** Its value is at most 1 µg/mL.

**Q.** And the “MIC Value” ([1]; PA-023, blaNDM)?
**A.** The value was at most 1 µg/mL.

**Q.** What about the “MIC Value” ([1]; PA-025, blaNDM) of the same compound?
**A.** Its value is at most 1 µg/mL.

**Q.** What about the “MIC Value” ([1]; PA-027, blaIMP) of the same compound?
**A.** Its value is at most 1 µg/mL.

**Q.** What about the “MIC Value” ([1]; PA-028, blaNDM) of the same compound?
**A.** The value was at most 1 µg/mL.

**Q.** And the “MIC Value” ([1]; PA-029, blaIMP)?
**A.** The value was at most 1 µg/mL.

**Q.** And the “MIC Value” ([1]; PA-030, blaIMP)?
**A.** The value was at most 1 µg/mL.

**Q.** What about the “MIC Value” ([1]; PA-034, blaNDM) of the same compound?
**A.** The value was at most 1 µg/mL.

**Q.** What about the “MIC Value” ([1]; PA-036, blaNDM) of the same compound?
**A.** Its value is at most 1 µg/mL.

**Q.** What about the “MIC Value” ([1]; PA-038, blaNDM) of the same compound?
**A.** Its value is at most 1 µg/mL.

**Q.** What about the “MIC Value” ([1]; PA-039, blaNDM) of the same compound?
**A.** Its value is at most 1 µg/mL.

**Q.** And the “MIC Value” ([1]; PA-044, blaNDM)?
**A.** Its value is at most 1 µg/mL.

**Q.** With O=c1c(OCCC2CC2)c(-c2ccc(F)c(F)c2)oc2cc(O)cc(O)c12 [Compound 25] as the compound, how does the IC50 [2] read?
**A.** Its IC50 is 22.7 µM.

**Q.** And the IC50 [3]?
**A.** Its IC50 is over 50 µM.

**Q.** What about the IC50 [4] of the same compound?
**A.** The IC50 was 22.8 µM.

**Q.** And the IC50 [5]?
**A.** Its IC50 is 11.4 µM.

**Q.** And the IC50 [6]?
**A.** Its IC50 is 13.9 µM.

**Q.** CC(C)(C)CC(=O)Oc1c(-c2ccc(F)c(F)c2)oc2cc(O)cc(O)c2c1=O [Compound 3] was tested. Which IC50 [2] did it give?
**A.** The IC50 was 24.6 µM.

**Q.** And the IC50 [3]?
**A.** The IC50 was 19.2 µM.

**Q.** And the IC50 [4]?
**A.** The IC50 was 22.2 µM.

**Q.** What about the IC50 [5] of the same compound?
**A.** The IC50 was 21.2 µM.

**Q.** And the IC50 [6]?
**A.** Its IC50 is 20.3 µM.

**Q.** For O=c1c(OCCN2CCCCC2)c(-c2ccc(F)c(F)c2)oc2cc(O)cc(O)c12 [Compound 19], which IC50 [2] is on record?
**A.** The IC50 was over 50 µM.

**Q.** And the IC50 [3]?
**A.** Its IC50 is over 50 µM.

**Q.** What about the IC50 [4] of the same compound?
**A.** Its IC50 is over 50 µM.

**Q.** What about the IC50 [5] of the same compound?
**A.** The IC50 was over 100 µM.

**Q.** And the IC50 [6]?
**A.** Its IC50 is over 100 µM.
